Laboratory results published in PubChem BioAssay (NCI).
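Cells were grown in 96-well plates and exposed to each compound for 48 hours at five concentrations; endpoints were interpolated linearly between bracketing concentrations, or set to the highest concentration if not reached. TGI: concentration producing complete growth inhibition.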

Legend:
Experiment in all cases: NCI tumour cell line growth inhibition, 48 h
SK-MEL-2 melanoma = test system: SK-MEL-2 melanoma
NCI-H226 lung = test system: NCI-H226 lung
TK-10 renal = test system: TK-10 renal
MDA-MB-435 = test system: MDA-MB-435
SR leukemia = test system: SR leukemia
HOP-92 NSCLC = test system: HOP-92 NSCLC
MCF7 breast = test system: MCF7 breast
CCRF-CEM leukemia = test system: CCRF-CEM leukemia
MOLT-4 leukemia = test system: MOLT-4 leukemia
SK-OV-3 ovarian = test system: SK-OV-3 ovarian
COLO 205 colon = test system: COLO 205 colon
HT29 colon = test system: HT29 colon
HOP-62 NSCLC = test system: HOP-62 NSCLC
SNB-19 CNS = test system: SNB-19 CNS
OVCAR-4 ovarian = test system: OVCAR-4 ovarian
T-47D breast = test system: T-47D breast
OVCAR-3 ovarian = test system: OVCAR-3 ovarian
MDA-N = test system: MDA-N
NCI/ADR-RES ovarian = test system: NCI/ADR-RES ovarian
ACHN renal = test system: ACHN renal
786-0 renal = test system: 786-0 renal
BT-549 breast = test system: BT-549 breast
EKVX NSCLC = test system: EKVX NSCLC
A498 renal = test system: A498 renal
RPMI-8226 leukemia = test system: RPMI-8226 leukemia
NCI-H23 lung = test system: NCI-H23 lung
SF-268 CNS = test system: SF-268 CNS
OVCAR-8 ovarian = test system: OVCAR-8 ovarian
DU-145 prostate = test system: DU-145 prostate
SW-620 colon = test system: SW-620 colon
SK-MEL-5 melanoma = test system: SK-MEL-5 melanoma
SF-295 CNS = test system: SF-295 CNS
LOX IMVI melanoma = test system: LOX IMVI melanoma
IGROV1 ovarian = test system: IGROV1 ovarian
A549 NSCLC = test system: A549 NSCLC
U251 CNS = test system: U251 CNS
SF-539 CNS = test system: SF-539 CNS
PC-3 prostate = test system: PC-3 prostate
UO-31 renal = test system: UO-31 renal
SN12C renal = test system: SN12C renal
NCI-H522 lung = test system: NCI-H522 lung
CAKI-1 renal = test system: CAKI-1 renal
HCT-116 colon = test system: HCT-116 colon
HS 578T breast = test system: HS 578T breast
SK-MEL-28 melanoma = test system: SK-MEL-28 melanoma
HL-60(TB) leukemia = test system: HL-60(TB) leukemia
KM12 colon = test system: KM12 colon
UACC-62 melanoma = test system: UACC-62 melanoma
K-562 leukemia = test system: K-562 leukemia
MALME-3M melanoma = test system: MALME-3M melanoma
MDA-MB-231 breast = test system: MDA-MB-231 breast
OVCAR-5 ovarian = test system: OVCAR-5 ovarian
M14 melanoma = test system: M14 melanoma
HCT-15 colon = test system: HCT-15 colon
NCI-H460 lung = test system: NCI-H460 lung
RXF 393 renal = test system: RXF 393 renal
SNB-75 CNS = test system: SNB-75 CNS
UACC-257 melanoma = test system: UACC-257 melanoma
HCC-2998 colon = test system: HCC-2998 colon

## COc1ccc2c3c1O[C@H]1C(=O)C=CC4(n5[nH]c(=O)n(-c6ccccc6)c5=O)C(C2)N(C)CCC314 (stereo partly specified)
SK-MEL-2 melanoma
  TGI: > 100 µM
NCI-H226 lung
  TGI: > 100 µM
TK-10 renal
  TGI: > 100 µM
MDA-MB-435
  TGI: > 100 µM
SR leukemia
  TGI: > 100 µM
HOP-92 NSCLC
  TGI: > 100 µM
MCF7 breast
  TGI: > 100 µM
CCRF-CEM leukemia
  TGI: > 100 µM
MOLT-4 leukemia
  TGI: > 100 µM
SK-OV-3 ovarian
  TGI: > 100 µM
COLO 205 colon
  TGI: > 100 µM
HT29 colon
  TGI: > 100 µM
HOP-62 NSCLC
  TGI: > 100 µM
SNB-19 CNS
  TGI: > 100 µM
OVCAR-4 ovarian
  TGI: > 100 µM
T-47D breast
  TGI: > 100 µM
OVCAR-3 ovarian
  TGI: > 100 µM
MDA-N
  TGI: > 100 µM
NCI/ADR-RES ovarian
  TGI: > 100 µM
ACHN renal
  TGI: > 100 µM
786-0 renal
  TGI: > 100 µM
BT-549 breast
  TGI: > 100 µM
EKVX NSCLC
  TGI: > 100 µM
A498 renal
  TGI: > 100 µM
RPMI-8226 leukemia
  TGI: > 100 µM
NCI-H23 lung
  TGI: > 100 µM
SF-268 CNS
  TGI: > 100 µM
OVCAR-8 ovarian
  TGI: > 100 µM
DU-145 prostate
  TGI: > 100 µM
SW-620 colon
  TGI: > 100 µM
SK-MEL-5 melanoma
  TGI: > 100 µM
SF-295 CNS
  TGI: > 100 µM
LOX IMVI melanoma
  TGI: > 100 µM
IGROV1 ovarian
  TGI: > 100 µM
A549 NSCLC
  TGI: > 100 µM
U251 CNS
  TGI: > 100 µM
SF-539 CNS
  TGI: > 100 µM
PC-3 prostate
  TGI: > 100 µM
UO-31 renal
  TGI: > 100 µM
SN12C renal
  TGI: > 100 µM
NCI-H522 lung
  TGI: > 100 µM
CAKI-1 renal
  TGI: > 100 µM
HCT-116 colon
  TGI: > 100 µM
HS 578T breast
  TGI: > 100 µM
SK-MEL-28 melanoma
  TGI: > 100 µM
HL-60(TB) leukemia
  TGI: > 100 µM
KM12 colon
  TGI: > 100 µM
UACC-62 melanoma
  TGI: > 100 µM
K-562 leukemia
  TGI: > 100 µM
MALME-3M melanoma
  TGI: > 100 µM
MDA-MB-231 breast
  TGI: > 100 µM
OVCAR-5 ovarian
  TGI: > 100 µM
M14 melanoma
  TGI: > 100 µM
HCT-15 colon
  TGI: > 100 µM

## CCc1nc(N)nc(N)c1-c1ccc(Cc2ccccc2)c([N+](=O)[O-])c1
SK-MEL-2 melanoma
  TGI: > 100 µM
NCI-H460 lung
  TGI: > 60.8 µM
NCI-H226 lung
  TGI: > 68.9 µM
TK-10 renal
  TGI: > 71.4 µM
MDA-MB-435
  TGI: > 100 µM
SR leukemia
  TGI: 6.11 µM
HOP-92 NSCLC
  TGI: > 59.3 µM
MCF7 breast
  TGI: > 65.1 µM
CCRF-CEM leukemia
  TGI: > 62 µM
MOLT-4 leukemia
  TGI: > 63.1 µM
SK-OV-3 ovarian
  TGI: > 83.6 µM
COLO 205 colon
  TGI: > 65.4 µM
HT29 colon
  TGI: > 61.5 µM
HOP-62 NSCLC
  TGI: > 69.7 µM
SNB-19 CNS
  TGI: > 100 µM
OVCAR-4 ovarian
  TGI: > 93.3 µM
T-47D breast
  TGI: > 85.4 µM
OVCAR-3 ovarian
  TGI: > 76 µM
MDA-N
  TGI: > 81.8 µM
NCI/ADR-RES ovarian
  TGI: > 62.8 µM
ACHN renal
  TGI: > 61.2 µM
786-0 renal
  TGI: > 60.7 µM
BT-549 breast
  TGI: > 65.8 µM
EKVX NSCLC
  TGI: > 58.8 µM
A498 renal
  TGI: > 74.2 µM
RPMI-8226 leukemia
  TGI: > 54.3 µM
NCI-H23 lung
  TGI: > 60.4 µM
SF-268 CNS
  TGI: > 56.2 µM
OVCAR-8 ovarian
  TGI: > 62.1 µM
DU-145 prostate
  TGI: > 76.3 µM
SW-620 colon
  TGI: > 64.2 µM
SK-MEL-5 melanoma
  TGI: > 100 µM
SF-295 CNS
  TGI: > 65.5 µM
LOX IMVI melanoma
  TGI: > 80.9 µM
IGROV1 ovarian
  TGI: > 64.2 µM
A549 NSCLC
  TGI: > 70.7 µM
U251 CNS
  TGI: > 65.5 µM
SF-539 CNS
  TGI: > 62.4 µM
PC-3 prostate
  TGI: > 100 µM
UO-31 renal
  TGI: > 54.5 µM
RXF 393 renal
  TGI: > 84.3 µM
SN12C renal
  TGI: > 100 µM
SNB-75 CNS
  TGI: > 60 µM
NCI-H522 lung
  TGI: > 35.8 µM
CAKI-1 renal
  TGI: > 100 µM
HCT-116 colon
  TGI: > 61.1 µM
HS 578T breast
  TGI: > 67.1 µM
SK-MEL-28 melanoma
  TGI: > 100 µM
HL-60(TB) leukemia
  TGI: > 53.4 µM
KM12 colon
  TGI: > 62.4 µM
UACC-257 melanoma
  TGI: > 71 µM
UACC-62 melanoma
  TGI: > 65.6 µM
K-562 leukemia
  TGI: > 59.5 µM
HCC-2998 colon
  TGI: > 64.6 µM
MDA-MB-231 breast
  TGI: > 70.8 µM
OVCAR-5 ovarian
  TGI: > 100 µM
M14 melanoma
  TGI: > 84.9 µM
HCT-15 colon
  TGI: > 59.7 µM

## COC(=O)c1c2c(c3[nH]c4ccccc4c3c1C(=O)OC)C(=O)C1=C(C2=O)C2(Cl)C(Cl)C(Cl)C1(Cl)C2(Cl)Cl (stereo unspecified)
NCI-H460 lung
  TGI: 13.8 µM
TK-10 renal
  TGI: 17.5 µM
MDA-MB-435
  TGI: 3.09 µM
SR leukemia
  TGI: 2.63 µM
HOP-92 NSCLC
  TGI: 3.68 µM
MCF7 breast
  TGI: 3.42 µM
CCRF-CEM leukemia
  TGI: 6.15 µM
MOLT-4 leukemia
  TGI: 3.67 µM
SK-OV-3 ovarian
  TGI: 37 µM
COLO 205 colon
  TGI: 3.19 µM
HT29 colon
  TGI: 7.07 µM
HOP-62 NSCLC
  TGI: 21.7 µM
SNB-19 CNS
  TGI: 24.7 µM
OVCAR-4 ovarian
  TGI: 6.31 µM
T-47D breast
  TGI: 16.3 µM
OVCAR-3 ovarian
  TGI: 8.98 µM
MDA-N
  TGI: 2.75 µM
NCI/ADR-RES ovarian
  TGI: 7.19 µM
ACHN renal
  TGI: 4.6 µM
786-0 renal
  TGI: 8.07 µM
BT-549 breast
  TGI: 4.34 µM
EKVX NSCLC
  TGI: > 100 µM
A498 renal
  TGI: 3.03 µM
RPMI-8226 leukemia
  TGI: 5.09 µM
NCI-H23 lung
  TGI: 4.04 µM
SF-268 CNS
  TGI: 6.84 µM
OVCAR-8 ovarian
  TGI: 5.28 µM
DU-145 prostate
  TGI: > 100 µM
SW-620 colon
  TGI: 1.4 µM
SK-MEL-5 melanoma
  TGI: 2.75 µM
SF-295 CNS
  TGI: 90.9 µM
LOX IMVI melanoma
  TGI: 3.91 µM
IGROV1 ovarian
  TGI: 8.52 µM
A549 NSCLC
  TGI: > 100 µM
U251 CNS
  TGI: 7.48 µM
SF-539 CNS
  TGI: 4.51 µM
PC-3 prostate
  TGI: 10.8 µM
UO-31 renal
  TGI: 8.65 µM
SN12C renal
  TGI: 5.98 µM
SNB-75 CNS
  TGI: 6.84 µM
NCI-H522 lung
  TGI: 2.72 µM
CAKI-1 renal
  TGI: 9.19 µM
HCT-116 colon
  TGI: > 100 µM
HS 578T breast
  TGI: 20.8 µM
SK-MEL-28 melanoma
  TGI: 2.97 µM
HL-60(TB) leukemia
  TGI: 7.78 µM
KM12 colon
  TGI: 17.3 µM
UACC-62 melanoma
  TGI: 4.59 µM
K-562 leukemia
  TGI: 23.2 µM
HCC-2998 colon
  TGI: 6.17 µM
MALME-3M melanoma
  TGI: 4.05 µM
MDA-MB-231 breast
  TGI: 7.59 µM
OVCAR-5 ovarian
  TGI: > 100 µM
M14 melanoma
  TGI: 5.68 µM
